Values of other authors in US20080247991A1, “Solution Additives For the Attenuation of Protein Aggregation” (priority 2004, published 2008).
Marks after values point to notes of the source that are not given here.

Molecular target: T1, RNase A (Bos taurus, UniProt P61823)
T1 sequence (P61823 27-150): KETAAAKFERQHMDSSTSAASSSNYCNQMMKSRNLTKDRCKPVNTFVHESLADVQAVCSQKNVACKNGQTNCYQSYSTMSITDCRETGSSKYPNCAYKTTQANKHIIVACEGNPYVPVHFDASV
Settings: interpolated to mbulk 0.91 m; cited from earlier work

SMILES: OCC(O)CO [Glycerol]
- Experimental ΓXP: −1.7 ± 0.8^b
